Source: PubChem BioAssay AID1259411 (Chemical Carcinogenesis Research Information System (CCRIS), 2018)
Calls of active or inactive are those of the source. No rule for the calls is given here.

Test system: rodent carcinogenicity bioassays, tumor incidence
Assay: CCRIS carcinogenicity studies
Outline: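 Archive of carcinogenicity, mutagenicity, tumor promotion and tumor inhibition results drawn from journals, NCI reports and other sources, expert-reviewed; covers 1985-2011 and is no longer updated.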

## OC[C@@H](O)[C@@H](O[C@@H]1O[C@H](CO)[C@H](O)[C@H](O)[C@H]1O)[C@H](O)[C@@H](O)CO
Species: MOUSE, Strain/Sex: CPB:SWISS/FEMALE, Route: ORAL, Dose: 0, 2, 5, 10% IN DIET FOR 104 WK (STUDY DURATION: 734 D), Dose: 0, 2, 5, 10% IN DIET FOR 104 WK (STUDY DURATION: 734 D)
  carcinogen call: inactive; negative
Species: MOUSE, Strain/Sex: CPB:SWISS/MALE, Route: ORAL, Dose: 0, 2, 5, 10% IN DIET FOR 104 WK (STUDY DURATION: 730 D), Dose: 0, 2, 5, 10% IN DIET FOR 104 WK (STUDY DURATION: 730 D)
  carcinogen call: inactive; negative
Species: RAT, Strain/Sex: SPF/FEMALE, Route: ORAL, Dose: 0, 2, 5, 10% IN DIET FOR DURATION OF STUDY ADMINISTERED TO OFFSPRING OF RATS FED THE SAME DIETS (STUDY DURATION: 130 WK), Dose: 0, 2, 5, 10% IN DIET FOR DURATION OF STUDY ADMINISTERED TO OFFSPRING OF RATS FED THE SAME DIETS (STUDY DURATION: 130 WK)
  carcinogen call: inactive; negative
Species: RAT, Strain/Sex: SPF/MALE, Route: ORAL, Dose: 0, 2, 5, 10% IN DIET FOR DURATION OF STUDY ADMINISTERED TO OFFSPRING OF RATS FED THE SAME DIETS (STUDY DURATION: 130 WK), Dose: 0, 2, 5, 10% IN DIET FOR DURATION OF STUDY ADMINISTERED TO OFFSPRING OF RATS FED THE SAME DIETS (STUDY DURATION: 130 WK), Tumor Site: Type of Lesion: TESTES: LEYDIG CELL TUMOR
  carcinogen call: active; positive

## CN(C)/N=N/c1nc[nH]c1C(N)=O
Species: RAT, Strain/Sex: BUFFALO/FEMALE, Route: ORAL, Dose: 0, 500, MG/KG IN DIET FOR 11 WK, Dose: 0, 500, MG/KG IN DIET FOR 11 WK, Tumor Site: Type of Lesion: MAMMARY GLAND: ADENOCARCINOMA, THYMUS GLAND: LYMPHOSARCOMA
  carcinogen call: active; positive
Species: RAT, Strain/Sex: SPRAGUE-DAWLEY/FEMALE, Route: INTRAPERITONEAL, Dose: 0, 100, 250, 400 MG/RAT IN CITRATE-MANNITOL SOLN, Dose: 0, 100, 250, 400 MG/RAT IN CITRATE-MANNITOL SOLN, Tumor Site: Type of Lesion: MAMMARY GLAND: ADENOCARCINOMA
  carcinogen call: active; positive
Species: RAT, Strain/Sex: SPRAGUE-DAWLEY/FEMALE, Route: ORAL, Dose: 346, 574, 740 MG/KG (TOTAL DOSE), Dose: 346, 574, 740 MG/KG (TOTAL DOSE), Tumor Site: Type of Lesion: MAMMARY GLAND: ADENOCARCINOMA, CARCINOMA, ADENOFIBROMA, THYMUS GLAND: LYMPHOSARCOMA, SPLEEN: LYMPHOSARCOMA, BRAIN: EPEND, Tumor Site: Type of Lesion: MAMMARY GLAND: ADENOCARCINOMA, CARCINOMA, ADENOFIBROMA, THYMUS GLAND: LYMPHOSARCOMA, SPLEEN: LYMPHOSARCOMA, BRAIN: EPEND
  carcinogen call: active; positive
Species: RAT, Strain/Sex: SPRAGUE-DAWLEY/MALE, Route: ORAL, Dose: 608, 974 MG/KG (TOTAL DOSE), Tumor Site: Type of Lesion: MAMMARY GLAND: ADENOCARCINOMA, THYMUS GLAND: LYMPHOSARCOMA, SPLEEN: LYMPHOSARCOMA, Tumor Site: Type of Lesion: MAMMARY GLAND: ADENOCARCINOMA, THYMUS GLAND: LYMPHOSARCOMA, SPLEEN: LYMPHOSARCOMA
  carcinogen call: active; positive

## C#CCOc1ccc(CCNC(=O)C(OCC#C)c2ccc(Cl)cc2)cc1OC (configuration not stated)
Species: Mouse, Strain/Sex: C57BL/10J CD-1 / Female (50/Group), Route: Oral, Dose: 0, 13.2, 67.8, 284.6 mg/kg/day of 96.5% mandipropamid in diet for 80 wk, study duration 80 wk, Dose: 0, 13.2, 67.8, 284.6 mg/kg/day of 96.5% mandipropamid in diet for 80 wk, study duration 80 wk
  carcinogen call: inactive; negative
Species: Mouse, Strain/Sex: C57BL/10J CD-1 / Male (50/Group), Route: Oral, Dose: 0, 10.6, 55.2, 222.7 mg/kg/day of 96.5% mandipropamid in diet for 80 wk, study duration 80 wk, Dose: 0, 10.6, 55.2, 222.7 mg/kg/day of 96.5% mandipropamid in diet for 80 wk, study duration 80 wk
  carcinogen call: inactive; negative
Species: Rat, Strain/Sex: Alpk:AP SD (Wistar-derived)/Female (52/Group), Route: Oral, Dose: 0, 3.5, 17.6, 69.7 mg/kg/day of 96.5% mandipropamid in diet for 104 wk, study duration 104 wk, Dose: 0, 3.5, 17.6, 69.7 mg/kg/day of 96.5% mandipropamid in diet for 104 wk, study duration 104 wk
  carcinogen call: inactive; negative
Species: Rat, Strain/Sex: Alpk:AP SD (Wistar-derived)/Male (52/Group), Route: Oral, Dose: 0, 3.0, 15.2, 61.3 mg/kg/day of 96.5% mandipropamid in diet for 104 wk, study duration 104 wk, Dose: 0, 3.0, 15.2, 61.3 mg/kg/day of 96.5% mandipropamid in diet for 104 wk, study duration 104 wk
  carcinogen call: inactive; negative

## O=[N+]([O-])c1ccc2ccc3c4ccccc4ccc3c2c1
Species: MOUSE, Strain/Sex: ICR/FEMALE, Route: INTRAPERITONEAL, Dose: 0, 100 NMOL (TOTAL DOSE) ADMINISTERED IN 3 SUBDOSES OF 1/7, 2/7, AND 4/7 ON DAYS 1, 8 AND 15 OF LIFE, RESPECTIVELY (STUD
  carcinogen call: inactive; negative
Species: MOUSE, Strain/Sex: ICR/MALE, Route: INTRAPERITONEAL, Dose: 0, 100 NMOL (TOTAL DOSE) ADMINISTERED IN 3 SUBDOSES OF 1/7, 2/7, AND 4/7 ON DAYS 1, 8 AND 15 OF LIFE, RESPECTIVELY (STUD
  carcinogen call: inactive; negative

## O=C/C(Br)=C/c1ccccc1
Species: MOUSE, Strain/Sex: SLC:DDY/FEMALE, Route: DERMAL, Dose: 0, 0.25, 1, 4% IN OLIVE OIL 2/WK FOR 79 WK (STUDY DURATION: 79 WK), Dose: 0, 0.25, 1, 4% IN OLIVE OIL 2/WK FOR 79 WK (STUDY DURATION: 79 WK)
  carcinogen call: inactive; negative

## c1ccc2c(c1)CCc1cc3c4c(ccc3cc1-2)CCCC4
Species: MOUSE, Strain/Sex: SWISS/FEMALE, Route: DERMAL, Dose: 0, 38 UG AS A 0.2% SOLUTION IN ACETONE APPLIED TO INTERSCAPULAR REGION 2/WK FOR 50 WK (STUDY DURATION: 60 WK), Tumor Site: Type of Lesion: SKIN: CARCINOMA
  carcinogen call: active; positive

## C[C@]12C=CC(=O)C=C1CC[C@@H]1[C@@H]2[C@@H](O)C[C@@]2(C)[C@H]1CC[C@]2(O)C(=O)CO
Species: RAT, Strain/Sex: SPRAGUE-DAWLEY/FEMALE, Route: GAVAGE, Dose: 0, 3 MG/KG ADMINISTERED 1, 2, 4.5 OR 9 TIMES PER MO FOR 18 MO TO GIVE MEDIAN TOTAL DOSES OF 54, 108, 234, 468 MG/KG (STU, Dose: 0, 3 MG/KG ADMINISTERED 1, 2, 4.5 OR 9 TIMES PER MO FOR 18 MO TO GIVE MEDIAN TOTAL DOSES OF 54, 108, 234, 468 MG/KG (STU
  carcinogen call: inactive; negative
Species: RAT, Strain/Sex: SPRAGUE-DAWLEY/MALE, Route: ORAL, Dose: 0, 40 UG/ML IN DRINKING WATER FOR AN AVERAGE DAILY DOSE OF 368 UG/KG FOR 104 WK (STUDY DURATION: 104 WK), Tumor Site: Type of Lesion: LIVER: HEPATOCELLULAR ADENOMA OR CARCINOMA
  carcinogen call: active; positive

## Cn1c(NO)nc2ncc(-c3ccccc3)cc21
Species: RAT, Strain/Sex: ACI/SEG/MALE, Route: INTRAPERITONEAL, Dose: 0, 50 UMOL/KG BW 2X/WK FOR 10 WK BEGINNING AT 3 D OF AGE (STUDY DURATION: 68 WK)
  carcinogen call: inactive; negative

## CCCCC(=O)O[C@H]1CC[C@H]2[C@@H]3CCc4cc(O)ccc4[C@H]3CC[C@]12C
Species: RAT, Strain/Sex: STRAIN-CD/MALE, Route: SUBCUTANEOUS, Dose: 0, 1 MG IN CASTOR OIL 1/4 WK FOR LIFE (STUDY DURATION: LIFE), Tumor Site: Type of Lesion: MAMMARY GLAND: TUMOR
  carcinogen call: active; positive

## N[C@@H](CCC(=O)N[C@@H](CSc1cc(O)c(SC[C@H](NC(=O)CC[C@H](N)C(=O)O)C(=O)NCC(=O)O)c(SC[C@H](NC(=O)CC[C@H](N)C(=O)O)C(=O)NCC(=O)O)c1O)C(=O)NCC(=O)O)C(=O)O
Species: RAT, Strain/Sex: EKER(TSC2 MUTANT)/MALE, Route: INTRAPERITIONEAL, Dose: 0, 2.5 UMOL/KG BW 5 BW 5 D/WK FOR 4 MO FOLLOWED BY 3.5 UMOL/KG BW 5 D/WK FOR 6 MO (STUDY DURATION: 10 MO), Tumor Site: Type of Lesion: KIDNEY: ADENOMA OR CARCINOMA
  carcinogen call: active; positive

## O=[N+]([O-])c1cccc2cccnc12
Species: RAT, Strain/Sex: F344/MALE,FEMALE, Route: ORAL, Dose: 0.1% IN DIET FOR 2 YR, Tumor Site: Type of Lesion: FORESTOMACH: SQUAMOUS CELL PAPILLOMA, CARCINOMA
  carcinogen call: active; positive
